According to PubChem BioAssay AID330 (DTP/NCI, 2004):
“And” between values parts separate entries of the source, which are not always exact repeats. Equal entries are not always repeated. Inconclusive results and toxic doses are left out.

Tested on: P388 leukemia ip, CD2F1 mice, survival T/C
Experiment: NCI In Vivo Anticancer Drug Screen. Data for tumor model P388 Leukemia (intraperitoneal) in CD2F1 (CDF1) mice
Details: endpoint: median survival time, higher = longer survival
Procedure, shortened: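 Mice carrying the transplanted tumor received test compound or vehicle. Survival was recorded in each group, and the value is the treated-group measurement divided by that of the vehicle-treated control group.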

[1] = dose: 50.0 mg/kg/injection, schedule: Q01DX009 (ip), vehicle: saline with Tween-80
[2] = dose: 100.0 mg/kg/injection, schedule: Q01DX009 (ip), vehicle: saline with Tween-80
[3] = dose: 200.0 mg/kg/injection, schedule: Q01DX009 (ip), vehicle: saline with Tween-80
[4] = dose: 100.0 mg/kg/injection, schedule: Q04DX003 (ip), vehicle: Klucel (hydroxypropylcellulose) (HPC)
[5] = dose: 200.0 mg/kg/injection, schedule: Q04DX003 (ip), vehicle: Klucel (hydroxypropylcellulose) (HPC)
[6] = dose: 400.0 mg/kg/injection, schedule: Q04DX003 (ip), vehicle: Klucel (hydroxypropylcellulose) (HPC)
[7] = dose: 50.0 mg/kg/injection, schedule: Q01DX005 (ip), vehicle: saline with Tween-80
[8] = dose: 100.0 mg/kg/injection, schedule: Q01DX005 (ip), vehicle: saline with Tween-80
[9] = dose: 200.0 mg/kg/injection, schedule: Q01DX005 (ip), vehicle: saline with Tween-80
[10] = dose: 50.0 mg/kg/injection, schedule: Q01DX005 (ip), vehicle: Klucel (hydroxypropylcellulose) (HPC)
[11] = dose: 100.0 mg/kg/injection, schedule: Q01DX005 (ip), vehicle: Klucel (hydroxypropylcellulose) (HPC)
[12] = dose: 200.0 mg/kg/injection, schedule: Q01DX005 (ip), vehicle: Klucel (hydroxypropylcellulose) (HPC)
[13] = dose: 100.0 mg/kg/injection, schedule: Q04DX002 (ip), vehicle: Klucel (hydroxypropylcellulose) (HPC)
[14] = dose: 200.0 mg/kg/injection, schedule: Q04DX002 (ip), vehicle: Klucel (hydroxypropylcellulose) (HPC)
[15] = dose: 25.0 mg/kg/injection, schedule: Q01DX009 (ip), vehicle: saline
[16] = dose: 50.0 mg/kg/injection, schedule: Q01DX009 (ip), vehicle: saline
[17] = dose: 12.5 mg/kg/injection, schedule: Q01DX009 (ip), vehicle: saline

CCn1c2nc(=O)n(C)c(=O)c-2cc2ccccc21
T/C [1]: 111 % of control | T/C [2]: 111 % of control | T/C [3]: 116 % of control

Cc1nn(C(=O)c2ccncc2)c(C)c1N=Nc1c(C)[nH]n(-c2ccccc2)c1=O
T/C [4]: 95 % of control | T/C [5]: 102 % of control | T/C [6]: 101 % of control

CC(C)(C)OC(=O)c1ccc(C(=O)OC(C)(C)C)cc1
T/C (dose: 100.0 mg/kg/injection, schedule: Q04DX002 (ip), vehicle: saline with Tween-80): 97 % of control | T/C (dose: 200.0 mg/kg/injection, schedule: Q04DX002 (ip), vehicle: saline with Tween-80): 96 % of control | T/C (dose: 400.0 mg/kg/injection, schedule: Q04DX002 (ip), vehicle: saline with Tween-80): 96 % of control

COC(=O)c1c(OC)cc2c(Cl)c3c(c(O)c2c1C)C(=O)[C@@]1(O)C(=O)C=C(OC)[C@H](O)[C@@]1(O)C3=O
T/C (dose: 12.5 mg/kg/injection, schedule: Q01DX005 (ip), vehicle: saline with Tween-80): 104 % of control | T/C (dose: 25.0 mg/kg/injection, schedule: Q01DX005 (ip), vehicle: saline with Tween-80): 109 % of control | T/C [7]: 95 % of control | T/C [8]: 104 % of control | T/C [9]: 110 % of control

Cc1nc2c(cnn2C)c(=O)n1-c1ccccc1
T/C [10]: 96 % of control | T/C [11]: 98 % of control | T/C [12]: 100 % of control

CC/C(=N\OC(=O)Nc1ccccc1)c1ccc(OC(=O)Nc2ccccc2)cc1
T/C [7]: 99 % of control | T/C [8]: 95 % of control | T/C [9]: 104 % of control

CC(C)(C(N=Cc1ccccc1)c1ccccc1)[N+](=O)[O-] (stereo not drawn)
T/C (dose: 60.0 mg/kg/injection, schedule: Q01DX005 (ip), vehicle: saline with Tween-80): 100 % of control | T/C (dose: 120.0 mg/kg/injection, schedule: Q01DX005 (ip), vehicle: saline with Tween-80): 98 % of control | T/C (dose: 240.0 mg/kg/injection, schedule: Q01DX005 (ip), vehicle: saline with Tween-80): 99 % of control

CCN(CC)CCOc1ccc(C2=C(c3ccccc3)CCc3cc(OC)ccc32)cc1
T/C (dose: 100.0 mg/kg/injection, schedule: Q04DX003 (ip), vehicle: saline with Tween-80): 100 % of control | T/C (dose: 200.0 mg/kg/injection, schedule: Q04DX003 (ip), vehicle: saline with Tween-80): 104 % of control

CN1Cc2ccccc2[C@H]2C(c3ccccc3)=NN(c3ccccc3)[C@H]21
T/C [7]: 103 % of control | T/C [8]: 94 % of control | T/C [9]: 92 % of control

O=C(OC(c1ccccc1)(C(F)(F)F)C(F)(F)F)c1ccccc1Sc1ccccc1
T/C [2]: 95 % of control | T/C [3]: 90 % of control | T/C (dose: 400.0 mg/kg/injection, schedule: Q01DX009 (ip), vehicle: saline with Tween-80): 95 % of control

Cc1c2ccnc(C#N)c2c(C)c2c1[nH]c1ccccc12
T/C (dose: 0.78 mg/kg/injection, schedule: Q04DX003 (ip), vehicle: distilled water + Tween-80): 91 % of control | T/C (dose: 1.56 mg/kg/injection, schedule: Q04DX003 (ip), vehicle: distilled water + Tween-80): 97 % of control | T/C (dose: 3.13 mg/kg/injection, schedule: Q04DX003 (ip), vehicle: distilled water + Tween-80): 97 % of control | T/C (dose: 6.25 mg/kg/injection, schedule: Q04DX003 (ip), vehicle: distilled water + Tween-80): 87 % of control and 88 % of control

O=C1OCCC1C(=O)c1ccccc1 (stereo not drawn)
T/C (dose: 50.0 mg/kg/injection, schedule: Q01DX001 (ip), vehicle: saline): 112 % of control | T/C (dose: 100.0 mg/kg/injection, schedule: Q01DX001 (ip), vehicle: saline): 112 % of control | T/C (dose: 200.0 mg/kg/injection, schedule: Q01DX001 (ip), vehicle: saline): 97 % of control

CNCCCc1cc(-c2ccc([N+](=O)[O-])cc2)n[nH]1
T/C [13]: 100 % of control | T/C [14]: 100 % of control

C1CNP2(=NP(N3CC3)(N3CC3)=NP(N3CC3)(N3CC3)=N2)N1
T/C (dose: 12.5 mg/kg/injection, schedule: Q01DX001 (ip), vehicle: saline with Tween-80): 108 % of control | T/C (dose: 25.0 mg/kg/injection, schedule: Q01DX001 (ip), vehicle: saline with Tween-80): 108 % of control | T/C (dose: 100.0 mg/kg/injection, schedule: Q01DX001 (ip), vehicle: saline with Tween-80): 156 % of control

O=C(O)CCCCCCCCCO
T/C [15]: 109 % of control | T/C [16]: 115 % of control | T/C (dose: 100.0 mg/kg/injection, schedule: Q01DX009 (ip), vehicle: saline): 100 % of control | T/C (dose: 200.0 mg/kg/injection, schedule: Q01DX009 (ip), vehicle: saline): 100 % of control

CN(C)C1c2cc(Br)ccc2-c2ccc(Br)cc21
T/C [10]: 95 % of control | T/C [11]: 105 % of control | T/C [12]: 110 % of control

COc1ccc2c(c1)CN(Cc1c(Cl)cccc1Cl)CO2
T/C (dose: 25.0 mg/kg/injection, schedule: Q01DX005 (ip), vehicle: Klucel (hydroxypropylcellulose) (HPC)): 98 % of control | T/C [10]: 115 % of control and 97 % of control | T/C [11]: 103 % of control and 92 % of control | T/C [12]: 89 % of control

CCCCOn1nnc2ccccc21
T/C (dose: 12.5 mg/kg/injection, schedule: Q01DX009 (ip), vehicle: saline with Tween-80): 94 % of control | T/C (dose: 25.0 mg/kg/injection, schedule: Q01DX009 (ip), vehicle: saline with Tween-80): 103 % of control | T/C [1]: 100 % of control and 97 % of control | T/C [2]: 101 % of control | T/C [3]: 113 % of control

CCCCCC(CN(C)C)C(=O)/C=C/c1ccccc1Cl (stereo not drawn)
T/C (dose: 6.25 mg/kg/injection, schedule: Q01DX009 (ip), vehicle: saline): 104 % of control | T/C [17]: 102 % of control | T/C [15]: 93 % of control | T/C [16]: 101 % of control

Nc1nc(Cl)nc2c1ncn2C1OC(CO)C(O)C1O (stereo not drawn)
T/C (dose: 3.1 mg/kg/injection, schedule: Q01DX010 (ip), vehicle: carboxymethylcellulose (CMC)): 105 % of control | T/C (dose: 6.2 mg/kg/injection, schedule: Q01DX010 (ip), vehicle: carboxymethylcellulose (CMC)): 120 % of control | T/C (dose: 25.0 mg/kg/injection, schedule: Q01DX010 (ip), vehicle: carboxymethylcellulose (CMC)): 150 % of control

CCCCCCOc1cc2c(cc1C(C)c1ccc(OC)cc1)OCO2 (stereo not drawn)
T/C [10]: 103 % of control | T/C [11]: 109 % of control | T/C [12]: 109 % of control

O=C(/C=C/c1ccccc1)c1ccccc1
T/C (dose: 12.5 mg/kg/injection, schedule: Q01DX009 (ip), vehicle: Klucel (hydroxypropylcellulose) (HPC)): 100 % of control | T/C (dose: 25.0 mg/kg/injection, schedule: Q01DX009 (ip), vehicle: Klucel (hydroxypropylcellulose) (HPC)): 105 % of control | T/C (dose: 50.0 mg/kg/injection, schedule: Q01DX009 (ip), vehicle: Klucel (hydroxypropylcellulose) (HPC)): 100 % of control | T/C (dose: 100.0 mg/kg/injection, schedule: Q01DX009 (ip), vehicle: Klucel (hydroxypropylcellulose) (HPC)): 108 % of control

Cc1ccc2c(Nc3ccc(NS(C)(=O)=O)cc3C)c3ccccc3nc2c1
T/C [17]: 150 % of control and 161 % of control | T/C (dose: 12.5 mg/kg/injection, schedule: Q04DX003 (ip), vehicle: saline): 98 % of control | T/C [15]: 156 % of control and 157 % of control | T/C (dose: 25.0 mg/kg/injection, schedule: Q04DX003 (ip), vehicle: saline): 96 % of control | T/C (dose: 50.0 mg/kg/injection, schedule: Q04DX003 (ip), vehicle: saline): 97 % of control | T/C (dose: 100.0 mg/kg/injection, schedule: Q04DX003 (ip), vehicle: saline): 95 % of control

CCCN(CCC)/N=C/c1c2c(O)c3c(O)c(C)c4c(c3c1O)C(=O)C(C)(O/C=C/C(OC)C(C)C(OC(C)=O)C(C)C(O)C(C)C(O)C(C)/C=C/C=C(C)C(=O)N2)O4 (stereo not drawn)
T/C (dose: 60.0 mg/kg/injection, schedule: Q01DX005 (ip), vehicle: Klucel (hydroxypropylcellulose) (HPC)): 110 % of control | T/C (dose: 120.0 mg/kg/injection, schedule: Q01DX005 (ip), vehicle: Klucel (hydroxypropylcellulose) (HPC)): 122 % of control

Cc1nn(-c2ccccc2)c(N)c1C#N
T/C (dose: 50.0 mg/kg/injection, schedule: Q04DX003 (ip), vehicle: Klucel (hydroxypropylcellulose) (HPC)): 104 % of control | T/C [4]: 107 % of control | T/C [5]: 106 % of control | T/C [6]: 104 % of control

CNc1cc(NC)c2c(c1N)C(=O)c1ccccc1C2=O
T/C (dose: 50.0 mg/kg/injection, schedule: Q04DX002 (ip), vehicle: Klucel (hydroxypropylcellulose) (HPC)): 103 % of control | T/C [13]: 100 % of control | T/C [14]: 101 % of control
